According to the NIST ThermoML archive (doi:10.1016/j.jct.2006.03.007):
± gives the expanded uncertainty stated by the source.

Test: molar heat capacity at constant pressure
Conditions: 101.33 kPa, Crystal

O=C(O)c1cccc(C(=O)O)n1 [pyridine-2,6-dicarboxylic acid]
Conditions | molar heat capacity at constant pressure [J/K/mol]
84.05 K | 56.42 ± 15
86.4 K | 56.44 ± 15
88.71 K | 56.5 ± 15
90.97 K | 56.59 ± 26
93.19 K | 56.71 ± 26
95.37 K | 56.85 ± 26
97.51 K | 57.03 ± 26
99.63 K | 57.23 ± 26
101.72 K | 57.46 ± 26
103.77 K | 57.71 ± 26
105.81 K | 57.98 ± 26
107.81 K | 58.27 ± 26
109.8 K | 58.59 ± 26
111.76 K | 58.92 ± 26
113.7 K | 59.27 ± 26
115.63 K | 59.65 ± 26
117.53 K | 60.03 ± 26
119.42 K | 60.44 ± 26
121.29 K | 60.86 ± 26
123.15 K | 61.3 ± 26
124.99 K | 61.76 ± 26
126.82 K | 62.23 ± 26
128.63 K | 62.72 ± 26
130.43 K | 63.22 ± 26
132.22 K | 63.73 ± 26
133.99 K | 64.25 ± 26
135.76 K | 64.8 ± 26
137.51 K | 65.35 ± 27
139.25 K | 65.91 ± 27
140.98 K | 66.49 ± 27
142.69 K | 67.08 ± 27
144.4 K | 67.68 ± 27
146.1 K | 68.29 ± 27
147.79 K | 68.91 ± 27
149.46 K | 69.55 ± 27
151.13 K | 70.19 ± 27
152.79 K | 70.84 ± 27
154.44 K | 71.5 ± 27
156.08 K | 72.18 ± 27
157.72 K | 72.86 ± 27
159.35 K | 73.55 ± 27
160.97 K | 74.25 ± 27
162.58 K | 74.96 ± 27
164.18 K | 75.68 ± 28
165.77 K | 76.4 ± 28
167.35 K | 77.13 ± 28
168.92 K | 77.86 ± 28
170.49 K | 78.61 ± 28
172.04 K | 79.36 ± 28
173.59 K | 80.11 ± 28
175.13 K | 80.88 ± 28
176.66 K | 81.65 ± 28
178.19 K | 82.42 ± 28
179.71 K | 83.2 ± 28
181.22 K | 83.99 ± 28
182.72 K | 84.78 ± 28
184.23 K | 85.59 ± 29
185.73 K | 86.39 ± 29
187.22 K | 87.21 ± 29
188.71 K | 88.03 ± 29
190.19 K | 88.85 ± 29
191.66 K | 89.68 ± 29
193.13 K | 90.52 ± 29
194.59 K | 91.35 ± 29
196.06 K | 92.2 ± 29
197.5 K | 93.04 ± 29
200.08 K | 94.57 ± 29
204.09 K | 96.99 ± 30
207.23 K | 98.92 ± 30
209.37 K | 100.26 ± 30
211.49 K | 101.59 ± 30
213.62 K | 102.95 ± 30
217.8 K | 105.66 ± 31
219.85 K | 107.01 ± 31
221.9 K | 108.37 ± 31
223.94 K | 109.74 ± 31
225.95 K | 111.1 ± 31
227.91 K | 112.43 ± 31
229.9 K | 113.8 ± 31
231.78 K | 115.1 ± 32
233.73 K | 116.46 ± 32
235.64 K | 117.81 ± 32
237.61 K | 119.2 ± 32
239.52 K | 120.56 ± 32
241.4 K | 121.91 ± 32
243.27 K | 123.26 ± 32
245.17 K | 124.63 ± 32
247.09 K | 126.04 ± 33
248.98 K | 127.43 ± 33
250.89 K | 128.84 ± 33
252.77 K | 130.24 ± 33
254.65 K | 131.65 ± 33
256.51 K | 133.04 ± 33
258.38 K | 134.45 ± 33
260.23 K | 135.86 ± 34
262.08 K | 137.27 ± 34
263.92 K | 138.68 ± 34
265.74 K | 140.08 ± 34
267.58 K | 141.5 ± 34
269.4 K | 142.91 ± 34
271.2 K | 144.31 ± 34
273 K | 145.72 ± 35
274.79 K | 147.12 ± 35
276.55 K | 148.51 ± 35
278.32 K | 149.91 ± 35
280.09 K | 151.31 ± 35
281.85 K | 152.71 ± 35
283.59 K | 154.09 ± 35
285.32 K | 155.48 ± 36
287.04 K | 156.85 ± 36
288.74 K | 158.22 ± 36
290.44 K | 159.59 ± 36
292.1 K | 160.93 ± 36
293.75 K | 162.27 ± 36
295.39 K | 163.6 ± 36
297.06 K | 164.95 ± 36
298.72 K | 166.31 ± 37
300.37 K | 167.65 ± 37
302.01 K | 168.99 ± 37
303.64 K | 170.32 ± 37
305.27 K | 171.65 ± 37
306.88 K | 172.98 ± 37
310.09 K | 175.62 ± 38
311.68 K | 176.93 ± 38
313.25 K | 178.21 ± 38
314.76 K | 179.47 ± 38
316.65 K | 181.03 ± 38
319.26 K | 183.18 ± 38
322.04 K | 185.48 ± 39
324.78 K | 187.75 ± 39
327.48 K | 189.98 ± 39
330.16 K | 192.2 ± 39
332.81 K | 194.4 ± 39
335.45 K | 196.59 ± 40
338.09 K | 198.77 ± 40
340.74 K | 200.97 ± 40
343.44 K | 203.2 ± 40
346.14 K | 205.43 ± 41
348.74 K | 207.58 ± 41
351.31 K | 209.7 ± 41
353.85 K | 211.78 ± 41
356.38 K | 213.86 ± 41
358.86 K | 215.9 ± 42
361.34 K | 217.92 ± 42
363.79 K | 219.91 ± 42
366.21 K | 221.88 ± 42
368.6 K | 223.82 ± 42
370.97 K | 225.73 ± 43
375.64 K | 229.5 ± 43
378 K | 231.38 ± 43
